The values below are quoted from earlier work in patent US6414126B1, “C-aryl glucoside SGLT2 inhibitors and method” (Bristol-Myers Squibb Company, priority 1999, dated 2002).

Broadly, the Km is the concentration of substrate that gives half-maximal velocity.

One series has as its target T1, human SGLT1 (Homo sapiens, UniProt P13866).
T1 sequence (P13866 1-664): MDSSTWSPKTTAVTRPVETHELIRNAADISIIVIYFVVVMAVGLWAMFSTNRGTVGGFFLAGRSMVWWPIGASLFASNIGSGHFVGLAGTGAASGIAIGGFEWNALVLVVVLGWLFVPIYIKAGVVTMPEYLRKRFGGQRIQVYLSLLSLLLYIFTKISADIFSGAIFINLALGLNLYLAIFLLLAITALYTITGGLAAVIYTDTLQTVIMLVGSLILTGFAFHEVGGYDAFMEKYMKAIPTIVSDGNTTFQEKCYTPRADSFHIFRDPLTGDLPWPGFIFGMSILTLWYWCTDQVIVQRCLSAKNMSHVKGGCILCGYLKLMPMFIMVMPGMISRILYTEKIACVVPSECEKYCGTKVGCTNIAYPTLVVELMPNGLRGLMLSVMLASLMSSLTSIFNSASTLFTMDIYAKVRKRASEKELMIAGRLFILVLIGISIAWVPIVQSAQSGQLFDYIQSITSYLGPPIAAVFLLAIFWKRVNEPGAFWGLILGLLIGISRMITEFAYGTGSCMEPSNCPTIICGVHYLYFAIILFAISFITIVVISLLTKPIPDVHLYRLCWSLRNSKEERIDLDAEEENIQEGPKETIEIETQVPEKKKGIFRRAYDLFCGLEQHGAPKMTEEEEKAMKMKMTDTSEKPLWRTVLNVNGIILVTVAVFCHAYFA
Particulars: SGLT1 transporter; read-out: Km values for uptake.

For the next series, the target named is T2, human SGLT2 (Homo sapiens, UniProt P31639).
T2 sequence (P31639 1-672): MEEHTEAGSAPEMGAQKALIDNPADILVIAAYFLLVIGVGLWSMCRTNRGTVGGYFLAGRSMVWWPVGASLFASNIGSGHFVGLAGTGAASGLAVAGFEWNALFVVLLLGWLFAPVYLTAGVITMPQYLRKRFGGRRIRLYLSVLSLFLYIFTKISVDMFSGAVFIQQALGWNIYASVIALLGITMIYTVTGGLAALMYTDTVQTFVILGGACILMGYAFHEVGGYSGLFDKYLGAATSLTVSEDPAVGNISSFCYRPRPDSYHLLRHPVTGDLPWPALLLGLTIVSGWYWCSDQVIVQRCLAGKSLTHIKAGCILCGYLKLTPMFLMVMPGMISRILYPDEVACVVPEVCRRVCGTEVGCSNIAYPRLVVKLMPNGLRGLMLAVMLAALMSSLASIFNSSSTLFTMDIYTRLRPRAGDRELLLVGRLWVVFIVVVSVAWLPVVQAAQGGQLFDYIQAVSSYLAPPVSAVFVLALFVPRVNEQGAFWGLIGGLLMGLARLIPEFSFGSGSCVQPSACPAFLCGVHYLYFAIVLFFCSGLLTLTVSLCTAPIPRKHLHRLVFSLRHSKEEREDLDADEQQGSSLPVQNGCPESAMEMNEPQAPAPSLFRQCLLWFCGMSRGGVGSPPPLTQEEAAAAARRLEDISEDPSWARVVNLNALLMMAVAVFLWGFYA
Particulars: SGLT2 transporter; read-out: Km values for uptake.

SMILES strings stand for the structures.

As for `CO[C@H]1O[C@H](CO)[C@@H](O)[C@H](O)[C@H]1O` [AMG, α-methyl-D-glucopyranoside], the Michaelis constant (Km) was 400 µM at human SGLT1 and 1600 µM on human SGLT2.
